In patent publication US20250368624A1, “M24B AMINOPEPTIDASE INHIBITORS FOR CARD8 INFLAMMASOME ACTIVATION” (Memorial Sloan-Kettering Cancer Center, priority 2022, published 2025):

Key:
XPNPEP1 = XPNPEP1 (Homo sapiens (Human), UniProt Q9NQW7); assay: XPNPEP1 substrate assay (H-Lys(abz)-Pro-Pro-pNA); format: biochemical; conditions: XPNPEP1 3.5 nM, substrate 100 μM, 60 mins
Description: Protein purification. Human prolidase (PEPD) was generated and purified. XPNPEP1 in pET15-b containing a 6× His tag was expressed in E. coli Rosetta DE3 cells. Cells were induced with IPTG for 16 h at 37° C., pelleted and lysed in buffer A (20 mM Tris-HCl (pH 7.9), 500 mM NaCl, and 10% (v/v) glycerol) by sonication. Affinity purification chromatography was performed using TALON resin and according to previously published protocols (Li et al., 2008).
(§1) Substrate assays. For the PEPD assay, a solution of substrate (Ala-Pro) was prepared in DMSO. 24 μL of 50 nM recombinant human PEPD were added to a 384-well, black, clear-bottom plate (Corning) with 1 μL dipeptide Ala-Pro (final conc. 40 μM). Alanine liberated was measured as increasing fluorescence signal (Resorufin, Ex/Em: 535/587 nm) recorded at 25° C. using an L-alanine assay kit (Abcam, ab83394) at 25° C. according to manufacturer's instructions. For the AMC reporter assays, experiments were performed with cell lysates. 5 μL solution of substrate (2.5 mM Ala-AMC) was added the mixture of 10 μL HEK293T cell lysates (2.5 mg/ml) and 10 μL of indicated compounds in a 384-well, black, clear-bottom plate (Corning) to initiate the reaction. Substrate cleavage was measured as increasing fluorescence signal (Ex/Em: 380/460 nm) recorded at 25° C. for 20 mins. For XPNPEP1 enzymes (XPNPEP1 3.5 nM) were plated on a black 384-well clear bottom plate and treated with the indicated doses of compounds. H-Lys(abz)-Pro-Pro-pNA substrate was added to a final concentration of 100 μM, and fluorescence was monitored (Ex/Em: 320/410) for 60 mins.

recombinant human PEPD = recombinant human PEPD (Homo sapiens (Human), UniProt P12955); assay: PEPD substrate assay (Ala-Pro cleavage, L-alanine assay kit); format: biochemical; conditions: 50 nM recombinant human PEPD, Ala-Pro 40 μM, 25° C.
Description: Protein purification. Human prolidase (PEPD) was generated and purified. XPNPEP1 in pET15-b containing a 6× His tag was expressed in E. coli Rosetta DE3 cells.
as §1, with “Alanine liberated was measured as increasing fluorescence signal (Resorufin, Ex/Em: 535/587 nm) recorded at 25° C. using an L-alanine assay kit (Abcam, ab83394) at 25° C. according to manufacturer's instructions.” left out, “For XPNPEP1 enzymes (XPNPEP1 3.5 nM) were plated on a black 384-well clear bottom plate and treated with the indicated doses of compounds.” left out

Chain of XPNPEP1 (Q9NQW7 whole entry): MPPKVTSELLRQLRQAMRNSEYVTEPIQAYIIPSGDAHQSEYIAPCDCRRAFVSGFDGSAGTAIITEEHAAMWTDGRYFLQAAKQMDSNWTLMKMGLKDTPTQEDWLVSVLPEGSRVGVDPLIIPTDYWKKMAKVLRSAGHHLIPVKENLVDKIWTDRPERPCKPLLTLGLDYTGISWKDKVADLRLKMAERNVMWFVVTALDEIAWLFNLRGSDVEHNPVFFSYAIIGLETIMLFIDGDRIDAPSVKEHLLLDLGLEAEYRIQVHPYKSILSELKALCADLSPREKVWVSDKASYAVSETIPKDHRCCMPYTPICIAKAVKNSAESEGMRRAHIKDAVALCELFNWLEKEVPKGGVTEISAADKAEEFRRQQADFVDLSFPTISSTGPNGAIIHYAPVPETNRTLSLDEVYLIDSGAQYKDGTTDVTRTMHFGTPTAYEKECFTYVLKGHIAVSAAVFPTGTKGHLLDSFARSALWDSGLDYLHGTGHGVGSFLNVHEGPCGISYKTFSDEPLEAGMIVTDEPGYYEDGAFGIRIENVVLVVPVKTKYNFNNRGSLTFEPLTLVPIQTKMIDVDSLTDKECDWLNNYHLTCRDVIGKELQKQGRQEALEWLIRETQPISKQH
Chain of recombinant human PEPD (P12955 whole entry): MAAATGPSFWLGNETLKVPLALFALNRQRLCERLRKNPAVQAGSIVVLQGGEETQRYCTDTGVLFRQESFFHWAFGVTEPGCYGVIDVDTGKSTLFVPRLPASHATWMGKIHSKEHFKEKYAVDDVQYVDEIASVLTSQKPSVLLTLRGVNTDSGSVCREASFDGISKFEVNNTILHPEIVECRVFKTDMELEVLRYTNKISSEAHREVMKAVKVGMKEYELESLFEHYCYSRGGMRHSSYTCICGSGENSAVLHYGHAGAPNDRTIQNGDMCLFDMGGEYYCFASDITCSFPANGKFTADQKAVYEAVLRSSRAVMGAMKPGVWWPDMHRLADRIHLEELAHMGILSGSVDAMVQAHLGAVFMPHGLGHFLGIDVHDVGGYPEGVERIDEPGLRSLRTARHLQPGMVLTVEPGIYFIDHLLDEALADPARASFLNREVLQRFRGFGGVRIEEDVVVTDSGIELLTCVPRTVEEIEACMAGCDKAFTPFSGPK

IC50 (XPNPEP1) [µM]	IC50 (recombinant human PEPD) [µM]	SMILES
11	4	CC(C)C[C@H](NC(=O)[C@@H]1CCCN1C(=O)[C@@H](O)[C@H](N)CC(C)C)C(=O)N(C)C [CQ109, (S)-1-((2S,3R)-3-amino-2-hydroxy-5-methylhexanoyl)-N—((S)-1-(dimethylamino)-4-methyl-1-oxopentan-2-yl)pyrrolidine-2-carboxamide]
57	1.5	COC(=O)[C@@H]1CCCN1C(=O)[C@@H](O)[C@H](N)CC(C)(C)C [CQ45, Methyl ((2S,3R)-3-amino-2-hydroxy-5,5-dimethylhexanoyl)-L-prolinate]
14	1.5	CC(C)CCNC(=O)[C@H](CC(C)C)NC(=O)[C@@H]1CCCN1C(=O)[C@@H](O)[C@H](N)CC(C)C [CQ110, (S)-1-((2S,3R)-3-amino-2-hydroxy-5-methylhexanoyl)-N—((S)-1-(isopentylamino)-4-methyl-1-oxopentan-2-yl)pyrrolidine-2-carboxamide]
7	0.72	CC(C)C[C@H](NC(=O)[C@@H]1CCCN1C(=O)[C@@H](O)[C@H](N)CC(C)C)C(=O)NCCF [CQ114, (S)-1-((2S,3R)-3-amino-2-hydroxy-5-methylhexanoyl)-N—((S)-1-((2-fluoroethyl)amino)-4-methyl-1-oxopentan-2-yl)pyrrolidine-2-carboxamide]
1.7	14	CC(C)C[C@H](NC(=O)[C@@H]1CCCN1C(=O)[C@@H](O)[C@H](N)CC(C)C)C(=O)NCCc1ccc(-c2ccccc2)cc1 [CQ119, (S)—N—((S)-1-((2-([1,1′-biphenyl]-4-yl)ethyl)amino)-4-methyl-1-oxopentan-2-yl)-1-((2S,3R)-3-amino-2-hydroxy-5-methylhexanoyl)pyrrolidine-2-carboxamide]
115	1.3	COC(=O)[C@@H]1CCCN1C(=O)[C@@H](O)[C@H](N)CCC(F)(F)F [CQ43, Methyl ((2S,3R)-3-amino-6,6,6-trifluoro-2-hydroxyhexanoyl)-L-prolinate]
2.9	0.56	CC(C)C[C@H](NC(=O)[C@@H]1CCCN1C(=O)[C@@H](O)[C@H](N)CC(C)C)C(=O)NS(=O)(=O)N(C)C [CQ113, (S)-1-((2S,3R)-3-amino-2-hydroxy-5-methylhexanoyl)-N—((S)-1-((N,N-dimethylsulfamoyl)-amino)-4-methyl-1-oxopentan-2-yl)pyrrolidine-2-carboxamide]
92	0.53	CCCC[C@@H](N)[C@H](O)C(=O)N1CCC[C@H]1C(=O)OC [CQ63]
84	14	CONC(=O)[C@H](CC(C)C)NC(=O)[C@@H]1CCCN1C(=O)[C@@H](O)[C@H](N)CC(C)C [CQ111, (S)-1-((2S,3R)-3-amino-2-hydroxy-5-methylhexanoyl)-N—((S)-1-(methoxyamino)-4-methyl-1-oxopentan-2-yl)pyrrolidine-2-carboxamide]
190	1.8	COC(=O)[C@@H]1CCCN1C(=O)[C@@H](O)[C@H](N)C(C)C [CQ59, Methyl ((2S,3R)-3-amino-2-hydroxy-4-methylpentanoyl)-L-prolinate]
74	0.84	COC(=O)[C@@H]1C[C@H](F)CN1C(=O)[C@@H](O)[C@H](N)CC(C)C [CQ35, Methyl (2S,4S)-1-((2S,3R)-3-amino-2-hydroxy-5-methylhexanoyl)-4-fluoropyrrolidine-2-carboxylate]
2.2	7.6	CC(C)C[C@H](NC(=O)[C@@H]1CCCN1C(=O)[C@@H](O)[C@H](N)CC(C)C)C(=O)NCCc1ccc2ccccc2c1 [CQ117, (S)-1-((2S,3R)-3-amino-2-hydroxy-5-methylhexanoyl)-N—((S)-4-methyl-1-((2-(naphthalen-2-yl)ethyl)amino)-1-oxopentan-2-yl)pyrrolidine-2-carboxamide]
47	1.8	COC(=O)[C@@H]1CCCN1C(=O)[C@@H](O)[C@H](N)c1ccc2ccoc2c1 [CQ69, Methyl ((2S,3R)-3-amino-3-(benzofuran-6-yl)-2-hydroxypropanoyl)-L-prolinate]
241	7.6	COC(=O)[C@@H]1CCCN1C(=O)[C@@H](O)[C@H](N)Cc1ccccc1 [CQ42, Methyl ((2S,3R)-3-amino-2-hydroxy-4-phenylbutanoyl)-L-prolinate]
154	2.2	COC(=O)[C@@H]1C[C@H](C)CN1C(=O)[C@@H](O)[C@H](N)CC(C)C [CQ38, Methyl (2S,4S)-1-((2S,3R)-3-amino-2-hydroxy-5-methylhexanoyl)-4-methylpyrrolidine-2-carboxylate]
14	3.7	CC(C)C[C@H](NC(=O)[C@@H]1CCCN1C(=O)[C@@H](O)[C@H](N)CC(C)C)C(=O)NC(C)(C)C [CQ115, (S)-1-((2S,3R)-3-amino-2-hydroxy-5-methylhexanoyl)-N—((S)-1-(tert-butylamino)-4-methyl-1-oxopentan-2-yl)pyrrolidine-2-carboxamide]
203	2.8	COC(=O)[C@@H]1CCCN1C(=O)[C@@H](O)[C@H](N)c1ccccc1 [CQ64, Methyl ((2S,3R)-3-amino-2-hydroxy-3-phenylpropanoyl)-L-prolinate]
10	7.5	CC(C)C[C@H](NC(=O)[C@@H]1CCCN1C(=O)[C@@H](O)[C@H](N)CC(C)C)C(N)=O [CQ96, (S)-1-((2S,3R)-3-amino-2-hydroxy-5-methylhexanoyl)-N—((S)-1-amino-4-methyl-1-oxopentan-2-yl)pyrrolidine-2-carboxamide]
324	1	COC(=O)[C@@H]1CC2(CC2)CN1C(=O)[C@@H](O)[C@H](N)CC(C)C [CQ36, Methyl (S)-5-((2S,3R)-3-amino-2-hydroxy-5-methylhexanoyl)-5-azaspiro[2.4]heptane-6-carboxylate]
65	2	COC(=O)[C@@H]1CCCN1C(=O)[C@@H](O)[C@H](N)c1cccs1 [CQ70, Methyl ((2S,3S)-3-amino-2-hydroxy-3-(thiophen-2-yl)propanoyl)-L-prolinate]

SMILES	IC50 (XPNPEP1) [µM]	IC50 (recombinant human PEPD) [µM]
COC(=O)[C@@H]1CCCN1C(=O)[C@@H](O)[C@H](N)c1ccco1 [CQ68, Methyl ((2S,3S)-3-amino-3-(furan-2-yl)-2-hydroxypropanoyl)-L-prolinate]	69	1.7
CC(C)C[C@H](NC(=O)[C@@H]1CCCN1C(=O)[C@@H](O)[C@H](N)CC(C)C)C(=O)N1CCC1 [CQ112, (S)-1-((2S,3R)-3-amino-2-hydroxy-5-methylhexanoyl)-N—((S)-1-(azetidin-1-yl)-4-methyl-1-oxopentan-2-yl)pyrrolidine-2-carboxamide]	95	66
